Test [1] concerns the target T1, Muscarinic acetylcholine receptor M1 (Rattus norvegicus, UniProt P08482).
T1 sequence (P08482 whole entry): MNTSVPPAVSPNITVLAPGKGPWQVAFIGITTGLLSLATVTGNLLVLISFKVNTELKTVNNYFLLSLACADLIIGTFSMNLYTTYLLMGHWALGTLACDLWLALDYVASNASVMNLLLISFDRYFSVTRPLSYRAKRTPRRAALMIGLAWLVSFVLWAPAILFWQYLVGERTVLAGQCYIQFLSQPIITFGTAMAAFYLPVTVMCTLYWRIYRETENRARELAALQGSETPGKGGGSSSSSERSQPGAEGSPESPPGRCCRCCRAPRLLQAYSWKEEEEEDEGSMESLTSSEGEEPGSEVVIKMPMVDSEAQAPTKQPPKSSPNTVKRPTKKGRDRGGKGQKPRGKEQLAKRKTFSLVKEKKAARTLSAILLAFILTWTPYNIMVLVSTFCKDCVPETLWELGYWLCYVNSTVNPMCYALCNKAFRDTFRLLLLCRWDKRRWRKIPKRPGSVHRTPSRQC
Nature of the test: Binding affinity against the muscarinic M1 (cortex) subtype was evaluated using [3H]pirenzepine.

The target in test [2] is T2, Muscarinic acetylcholine receptor M2 (Rattus norvegicus, UniProt P10980).
T2 sequence (P10980 whole entry): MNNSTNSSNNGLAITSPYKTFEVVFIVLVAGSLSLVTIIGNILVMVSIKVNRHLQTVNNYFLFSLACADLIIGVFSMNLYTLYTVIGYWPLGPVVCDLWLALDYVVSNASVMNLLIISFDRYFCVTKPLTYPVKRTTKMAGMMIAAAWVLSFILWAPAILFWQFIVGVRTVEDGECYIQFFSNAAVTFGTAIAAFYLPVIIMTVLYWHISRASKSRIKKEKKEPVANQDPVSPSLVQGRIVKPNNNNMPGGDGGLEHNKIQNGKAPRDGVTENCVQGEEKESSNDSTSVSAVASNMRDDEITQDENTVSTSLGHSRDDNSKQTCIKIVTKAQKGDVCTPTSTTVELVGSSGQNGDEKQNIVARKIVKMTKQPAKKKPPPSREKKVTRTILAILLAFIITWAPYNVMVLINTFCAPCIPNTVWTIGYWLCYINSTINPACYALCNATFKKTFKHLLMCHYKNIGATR
Nature of the test: Binding affinity against the muscarinic M2 (brainstem) subtype was evaluated using [3H]quinuclidinyl benzilate. Format: tissue-based.

The structures appear in SMILES notation.

`C[C@H]1OC(=O)[C@@H]2C[C@@H]3CCCC[C@H]3[C@H](/C=C/[C@H]3CCC[C@H](C)N3C)[C@H]12`: the Ki (as a rule, the equilibrium dissociation constant of an inhibitor or competing ligand from its target) in test [1] was 316 nM; in test [2], 200 nM.

Consider `C[C@@H]1OC(=O)[C@H]2C[C@H]3CCCC[C@@H]3[C@@H](/C=C/[C@H]3CCC[C@H](C)N3C)[C@@H]12` [HIMBACINE], for which the Ki in test [1] is 63.1 nM; in test [2] it was 10 nM.

As to `C[C@@H]1OC(=O)[C@H]2C[C@H]3CCCC[C@@H]3[C@@H](/C=C/[C@@H]3CCC[C@@H](C)N3C)[C@@H]12`, the values for the Ki in test [1] and in test [2] were 316 nM and 200 nM, respectively.

For the compound `C[C@@H]1CCC[C@@H](/C=C/[C@H]2[C@@H]3CCCC[C@H]3C[C@H]3C(=O)O[C@H](C)[C@@H]23)N1C` (single isomer, unassigned; ent-1), the Ki in test [1] was 1000 nM; in test [2], 794 nM.

Source of the values: ChEMBL document CHEMBL1135204, “Synthesis and muscarinic M2 subtype antagonistic activity of unnatural ent-himbacine and an enantiomeric pair of (2'S,6'R)-diepihimbacine” (Bioorg Med Chem Lett, 2002).
